Earlier results, collected in patent US8778301B2, “Gamma-hydroxybutyrate compositions containing carbohydrate, lipid or amino acid carriers” (Orphan Medical, Inc., priority 2000, dated 2014).
Where a name gives a salt, the structure may show the parent alone.

Key:
[1] = patients
[2] = heroin and methadone withdrawal
[3] = patients; remark: listed apart in the source
[4] = healthy volunteers, 12.5, 25 and 50 mg/kg
[5] = not given; remark: listed apart in the source
[6] = in vivo
[7] = intravenous administration, patients
[8] = not given; remark: listed apart in the source

Structure (SMILES)	duration of normal sequence of NREM and REM sleep (healthy human volunteers, low doses (about 30 mg/kg)) [h]	tolerance to sleep-inducing effects (low doses, over time)	alcohol craving, daily drinks, alcohol withdrawal symptoms [1]	symptoms of opiate withdrawal [2]	growth hormone levels [3]	oral absorption and elimination processes [4]	continuity of sleep ([5]; clinical trials)	delta sleep ([5]; clinical trials)	REM latency ([5]; human, in vivo)	sleep apnea ([5]; human, in vivo)	total sleep time and REM sleep ([5]; human, in vivo)	signs and symptoms of narcolepsy (daytime sleepiness, cataplexy, sleep paralysis, hypnagogic hallucinations) [6]	intracranial pressure [7]	organ or other toxicities in periodic clinical laboratory tests ([8]; long-term treatment of narcolepsy)	development of tolerance ([8]; patients treated for many years)
O=C(O)CCCO [GHB monosodium salt, sodium oxybate]	2 to 3	without the development of tolerance	–	–	–	–	–	–	–	–	–	–	–	–	–
O=C(O)CCCO [GHB, Gamma-hydroxybutyric acid]	–	–	reduce alcohol craving, the number of daily drinks consumed, and the symptoms of alcohol withdrawal	decrease the symptoms of opiate withdrawal	increase growth hormone levels	capacity-limited	improves the continuity of sleep	increases delta sleep	decreases REM latency	reduces sleep apnea	increases total sleep time and REM sleep	substantially reduces the signs and symptoms of narcolepsy	reduce intracranial pressure	have not indicated organ or other toxicities	without development of tolerance
